From US5482975A, “Adenosine diphosphoribose polymerase binding nitroso aromatic compounds useful as retroviral inactivating agents, anti-retroviral agents and anti-tumor agents” (priority 1993, dated 1996)

Legend:
[1] = system: ADPRT; details: cited from earlier work
[2] = system: 855-2 leukemia cells; test: growth inhibition of 855-2 cells, comparison with vincristine (FIG. 7); type: cell-based, human
Protocol: Vincristine, a highly toxic chemotherapeutic compound, is currently used in the treatment of leukemia and other malignancies. […] Vincristine was tested in doses of 0.1, 1, 10 and 100 μM.

[3] = system: anti-tumor and anti-HIV; test: biological action of nitroso compounds (anti-tumor and anti-HIV, summary); type: cell-based; details: for anti-tumor and anti-HIV activity: effective even after exposure of cells as short as 30 minutes
[4] = system: human leukemia cell lines (855-2, H9, HL-60, K562); test: [3H] thymidine uptake, human leukemia cell lines together; type: cell-based; details: 10 μM; each of the cell lines tested
[5] = system: H9 cells; test: [3H] thymidine uptake, H9 cells (FIG. 2B); type: cell-based, human; details: 10% FCS
[6] = system: K562 cells; test: [3H] thymidine uptake, K562 cells (FIG. 2D); type: cell-based, human; details: 10% fetal bovine serum
[7] = system: 855-2 cells; test: [3H] thymidine uptake / growth, 855-2 cells (FIG. 2A, E, F; FIG. 3); type: cell-based, human; details: for relative inhibition: 1 μM; for relative inhibition / inhibition / inhibitory effects with different growth factors: 10% fetal bovine serum; for inhibitory effects with different growth factors: AGF or BCGF
Protocol: FIGS. 2A-2F are a composite of graphs displaying the inhibitory effects of the ADRPT ligands on (FIG. 2A) 855-2 cells (a cell line of human B-cell lineage acute lymphoblastic leukemia), (FIG. 2B) H9 cells (a cell line of human T-cell lineage acute lymphoblastic leukemia), FIG. (2C) HL-60 cells (a cell line of human acute nonlymphoblastic leukemia) and (FIG. 2D) K562 cells (a cell line of human chronic myelogenous leukemia). These cells were cultured while under the influence of the growth factors in 10% fetal bovine serum (FCS), whereas in (FIG. 2E) and (FIG. 2F) the 855-2 cells were cultured in the presence of autocrine growth factor activity (AGF) or low molecular weight-B-cell growth factor (BCGF, a T-cell derived lymphokine), respectively.
Experiments using HL-60 cells (FIG. 2C) provided similar conclusions.
855-2 cells that were grown in media with (1) 10% fetal bovine serum, (2) autocrine growth factor (AGF) and (3) low molecular weight-BCGF (a T cell derived lymphokine) were exposed to increasing concentrations of the ADRPT ligands.

[8] = system: various cancer cells (855-2, HL-60, D32, D37, CRL 7712, 186 medulla, L1210, MDA-468); test: functions of various cancer cells in presence of compounds (FIGS. 4-9); type: cell-based; details: summary statement
Protocol: (§1) Experiments were performed in which the functions of various cancer cells (855-2 and HL-60 leukemia cells, D32, D37 and CRL 7712 glioblastoma cell lines, 186 medulla tumor cell line, L1210 murine leukemia cell line, MDA-468 human breast tumor cell line) and normal cells (neutrophil leukocytes and bone marrow or peripheral blood stream cells) were assessed in the absence or presence of the compounds.

[9] = system: 855-2 cells; test: colony formation (CFU) of leukemic cells in semi-solid medium (FIG. 4); type: cell-based, human
Protocol: as §1

[10] = system: HL-60 cells; test: as above; type: cell-based, human
Protocol: as §1

[11] = system: HIV-1; test: inhibition of HIV infection, virus titer in stimulated human lymphoblasts; type: cell-based; details: 30 min exposure, day 10, virus alone 5.25
Protocol: VIII. Anti-HIV action of NOBP, NOBA and NOQ on stimulated human lymphoblasts.
Exposure to the two drugs was only for 30 minutes at the commencement of viral infection, and drugs were never re-added. The results given in Table III provide the ID50 of HIV titer 10 days after infection of cell cultures with HIV.

[12] = system: 855-2 cells; test: cytocidal activity, MTT assay; type: cell-based, human; details: 10 μM; 100,000 cells/ml
Protocol: MTT (3-[4,5-[…]]-2,5-diphenyltetrazolium bromide) at 1 mg/ml was then added for 16 hours. The absorbance of the pelleted cell was then measured at 550 nm after adding DMSO to solubilze the cells.

[13] = system: normal cells (neutrophil leukocytes and bone marrow or peripheral blood cells)
Protocol: as §1

[14] = system: Human Neutrophils; test: superoxide generation by human neutrophils; details: 10 μM; mean + S.D., n = 11; PMN + PMA
[15] = system: normal rhesus bone marrow stem cells; test: CFU stem cell toxicity assay (FIG. 5A)
[16] = molecular target: Zn(HIV1-F1) (Human immunodeficiency virus type 1 lw12.3 isolate, UniProt Q70622); details: cited from earlier work
[17] = molecular target: T1, calf thymus ADPRT (Bos taurus, UniProt P18493); test: ADPRT polymerase activity inhibition / inactivation; type: biochemical
T1 construct: from tissue; host or cells: calf thymus
T1 sequence (P18493 whole entry): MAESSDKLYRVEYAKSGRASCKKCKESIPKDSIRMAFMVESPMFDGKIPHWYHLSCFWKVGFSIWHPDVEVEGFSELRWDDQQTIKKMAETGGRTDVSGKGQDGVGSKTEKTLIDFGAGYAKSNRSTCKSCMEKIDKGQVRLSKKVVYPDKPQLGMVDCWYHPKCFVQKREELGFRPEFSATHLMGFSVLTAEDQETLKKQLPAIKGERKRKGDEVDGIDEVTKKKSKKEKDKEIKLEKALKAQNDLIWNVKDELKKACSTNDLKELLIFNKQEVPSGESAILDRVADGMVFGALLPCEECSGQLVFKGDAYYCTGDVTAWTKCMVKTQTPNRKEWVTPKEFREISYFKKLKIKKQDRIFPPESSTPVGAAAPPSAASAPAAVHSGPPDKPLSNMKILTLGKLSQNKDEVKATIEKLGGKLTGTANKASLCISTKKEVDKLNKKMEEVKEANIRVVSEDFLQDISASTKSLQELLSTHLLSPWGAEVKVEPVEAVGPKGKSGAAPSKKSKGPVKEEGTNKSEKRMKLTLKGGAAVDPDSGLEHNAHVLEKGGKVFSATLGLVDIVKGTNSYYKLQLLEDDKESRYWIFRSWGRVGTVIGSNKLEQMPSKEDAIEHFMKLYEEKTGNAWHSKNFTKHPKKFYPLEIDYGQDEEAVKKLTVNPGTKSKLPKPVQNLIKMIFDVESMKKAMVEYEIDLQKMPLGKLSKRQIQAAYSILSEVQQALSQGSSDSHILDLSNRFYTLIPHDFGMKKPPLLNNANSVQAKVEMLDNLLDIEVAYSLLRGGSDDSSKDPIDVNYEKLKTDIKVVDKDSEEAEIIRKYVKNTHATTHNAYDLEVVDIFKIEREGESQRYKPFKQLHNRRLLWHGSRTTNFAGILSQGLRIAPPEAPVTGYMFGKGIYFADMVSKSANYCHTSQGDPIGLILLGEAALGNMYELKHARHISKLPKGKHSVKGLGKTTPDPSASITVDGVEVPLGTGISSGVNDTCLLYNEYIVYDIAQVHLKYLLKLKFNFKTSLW
Protocol: | Polymerization at 25° C. for 4 minutes.

[18] = not told

Molecule: O=c1c(O)c(-c2ccc(O)c(O)c2)oc2cc(O)cc(O)c12 [quercetin]
- ADPRT polymerase activity inhibition [1]: known to inhibit ADPRT polymerase activity

Molecule: CC[C@]1(O)C[C@H]2CN(CCc3c([nH]c4ccccc34)[C@@](C(=O)OC)(c3cc4c(cc3OC)N(C=O)[C@H]3[C@@](O)(C(=O)OC)[C@H](OC(C)=O)[C@]5(CC)C=CCN6CC[C@]43[C@@H]65)C2)C1 [vincristine, reference compound]
- concentration required for same growth inhibition as 10 μM NOBP ([2]; in vitro): 100 µM

Molecule: O=Nc1ccc2oc(=O)ccc2c1 [NOBP, 6-nitroso-1,2-benzopyrone]
- anti-tumor and anti-HIV activity [3]: highly active
- inhibition of 3H-thymidine uptake [4]: powerfully inhibited
- inhibition of thymidine uptake ([5]; 100 μM): almost complete inhibition
- inhibition of cell growth ([6]; 10 μM): almost complete inhibition
- inhibition of cell growth ([6]; 100 μM): almost complete inhibition
- relative potency [6]: most potent inhibitors
- relative inhibition [7]: somewhat more inhibition than NOBA
- growth arrest in increasing FCS ([7]; 10 μM, increasing FCS concentrations): Growth arrest occurs irrespective of the concentration of FCS
- inhibition ([7]; 10 μM): almost complete inhibition
- inhibitory effects with different growth factors [7]: potent inhibitory effects
- effectiveness against tumor cells [8]: highly effective
- ability to form colonies (CFU) [9]: inhibit the ability
- ability to form colonies (CFU) [10]: inhibit the ability
- times more potent than vincristine ([2]; equal concentration): about 10 times
- Virus Titer (log ID50) ([11]; 10 μM): 2.01 log ID50
- cell killing [12]: complete killing
- effect on colony formation by normal cells [13]: minimal effect on normal cells
- effect on viability of normal cells [13]: not to affect adversely the viability of normal cells
- toxicity to normal cells [13]: not toxic to normal cells
- Generation of Superoxide by Human Neutrophils [14]: 34.1 ± 14.1 nmol 02^- /hr/10^5 cells

Molecule: Nc1ccc2oc(=O)ccc2c1I [IABP, 5-iodo-6-amino-1,2-benzopyrone]
- Virus Titer (log ID50) ([11]; 250 μM): 4.66 log ID50
- ADPRT polymerase activity inhibition [1]: known ADPRT polymerase activity inhibitors
- CFU stem cell toxicity ([15]; 250 μM): toxic

Molecule: NC(=O)c1ccccc1 [benzamide]
- ADPRT polymerase activity inhibition [1]: known to inhibit ADPRT polymerase activity

Molecule: O=c1ccc2ccccc2o1 [coumarin, 1,2-benzopyrone]
- ADPRT binding [1]: inhibitory ligand
- ADPRT polymerase activity inhibition [1]: known to inhibit ADPRT polymerase activity

Molecule: Nc1ccc2oc(=O)ccc2c1 [ABP, 6-amino-1,2-benzopyrone]
- Virus Titer (log ID50) ([11]; 500 μM): 4.50 log ID50
- ADPRT binding [1]: binds specifically to ADRPT at the site that also binds to DNA
- CFU stem cell toxicity ([15]; 1 μM): toxic

Molecule: O=c1ccc2cc([N+](=O)[O-])ccc2o1 [NO2 BP, 6-nitro-1,2-benzopyrone, reference compound]
- effectiveness against tumor cells [8]: almost ineffective
- Virus Titer (log ID50) ([11]; 250 μM): 4.93 log ID50

Molecule: O=C(O)CN(CCN(CC(=O)O)CC(=O)O)CC(=O)O [EDTA]
- molar excess required to remove zinc from Zn(HIV1-F1) [16]: 10 fold

Molecule: 5(7)-nitroso-1(2H)-isoquinolinone [NOQ]
- IC50 ([17]; 25° C., 4 minutes, pH 7.5, read-out: I50 (concentration that inhibits ADPRT enzyme activity 50%)): 13 µM
- anti-tumor and anti-HIV activity [3]: highly active
- inhibition of 3H-thymidine uptake [4]: powerfully inhibited
- inhibition of thymidine uptake ([5]; 10 μM): almost complete inhibition
- relative potency [5]: most potent inhibitor
- inhibition of cell growth ([6]; 10 μM): almost complete inhibition
- relative potency [6]: most potent inhibitors
- relative inhibition [7]: somewhat more inhibition than NOBP
- inhibition ([7]; 10 μM): almost complete inhibition
- inhibitory effects with different growth factors [7]: potent inhibitory effects
- Virus Titer (log ID50) ([11]; 10 μM): 1.73 log ID50
- cell killing [12]: complete killing

Molecule: O=Nc1ccc2oc(=O)ccc2c1I [compound 6, 5-iodo-6-nitroso-1,2-benzopyrone, reference compound]
- inhibition of ADPRT [17]: relatively poor inhibitor
- biological action, times weaker than 6-N-1,2-benzopyrone ([3]; relative to 6-nitroso-1,2-benzopyrone): 10 times
- permeation [18]: poor permeant molecule

Molecule: c1ccc2cnccc2c1 [isoquinoline]
- ADPRT polymerase activity inhibition [1]: known to inhibit ADPRT polymerase activity

Molecule: 3-aminonaphthylhydrazide
- ADPRT polymerase activity inhibition [1]: known to inhibit ADPRT polymerase activity
